Laboratory results from US8008329B2 (Dong Wha Pharmaceutical Co., Ltd., priority 2008, dated 2011).
Marks after values point to notes of the source that are not given here.

Tested on: osteoclast differentiation
Experiment: Osteoclast differentiation in co-culture of mouse bone marrow cells and ST2 cells, TRAP staining (Examples 8-9)
Type: cell-based
Conditions: for % number of osteoclast (vs. solvent control group): 0.1 μM each, day 7; for activity at 0.1 µM: Mus musculus, Osteoclast, 168 h, Individual treatment (compounds), day 7, read-out: % number of osteoclast (vs. solvent control group)
Procedure, shortened: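 Bone marrow cells from 6-8-week male ddY mice were co-cultured with ST2 stromal cells under 10^−8 M vitamin D3 and 10^−8 M dexamethasone, with compounds at 0.1 μM final (0.1% DMSO control), refreshed on days 3 and 5. On day 7, TRAP-positive osteoclasts with ≥6 nuclei were counted and expressed as % of solvent control (n=4).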

[1] = Combination treatment (alendronic acid + compounds)
[2] = Combination treatment (risedronic acid + compounds)

Compound	% number of osteoclast (vs. solvent control group) [1]	% number of osteoclast (vs. solvent control group) [2]	activity at 0.1 µM [%]
Cc1nc(-c2ccc(OCCCCCOc3ccc(C(=N)NO)cc3)cc2)c(CCN2CCSCC2)s1 [Compound 228, N-hydroxy-4-(5-{4-[2-methyl-5-(2-thiomorpholin-4-yl-ethyl)-thiazol-4-yl]-phenoxy}-pentyloxy)-benzamidine]	31 ± 4.8^ab %	20 ± 5.8^ac %	49 ± 3.5
Cc1nc(-c2ccc(OCCCCCOc3ccc(C(=N)NO)cc3)cc2)c(CN2CCOCC2)s1 [Compound 293, N-hydroxy-4-{5-[4-(2-methyl-5-morpholin-4-ylmethyl-thiazol-4-yl)-phenoxy]-pentyloxy}-benzamidine]	15 ± 2.6^b %	11 ± 2.6^c %	36 ± 10
CCN(CC)c1nc(-c2ccc(OCCCCCOc3ccc(C(=N)NO)cc3)cc2)c(C(C)C)s1 [Compound 162, N-hydroxy-4-{5-[4-(5-isopropyl-2-diethylamino-1,3-thiazol-4-yl)phenoxy]pentyloxy}-benzamidine]	78 ± 1.8%	61 ± 7.5^ac %	98 ± 8.2
CNc1nc(-c2ccc(OCCCCCOc3ccc(C(=N)NO)cc3)cc2)c(CC2CCCC2)s1 [Compound 109, N-hydroxy-4-{5-[4-(5-cyclopentylmethyl-2-methylamino-1,3-thiazol-4-yl)phenoxy]pentyloxy}-benzamidine]	49 ± 9.8^b %	30 ± 6.5^ac %	60 ± 9.6
Cc1nc(-c2ccc(OCCCCCOc3ccc(C(=N)NO)cc3)cc2)c(CCCl)s1 [Compound 42, N-hydroxy-4-{5-[4-(5-(2-chloro-ethyl)-2-methyl-1,3-thiazol-4-yl)phenoxy]pentyloxy}-benzamidine]	33 ± 1.9^ab %	32 ± 8.0^ac %	69 ± 11.4
CC(C)C(=O)N(C)c1nc(-c2ccc(OCCCCCOc3ccc(C(=N)NO)cc3)cc2)c(CCN2CCOCC2)s1 [Compound 268, N-hydroxy-4-(5-{4-[2-(isobutyryl-methyl-amino)-5-(2-morpholin-4-yl-ethyl)-thiazol-4-yl]-phenoxy}-pentyloxy)-benzamidine]	28 ± 1.7^b %	17 ± 3.4^ac %	52 ± 9.1
Cc1sc(N(C)CCO)nc1-c1ccc(OCCCCCOc2ccc(C(=N)NO)cc2)cc1 [Compound 120]	54 ± 2.4^ab %	55 ± 9.1^ac %	80 ± 6.5
N=C(NO)c1ccc(OCCCCCOc2ccc(-c3nc(NC(=O)c4cccnc4)sc3CC3CCCC3)cc2)cc1 [Compound 89, N-hydroxy-4-{5-[4-(5-cyclopentylmethyl-2-(3-pyridylcarbonyl)amino-1,3-thiazol-4-yl)phenoxy]pentyloxy}-benzamidine]	38 ± 1.9^ab %	39 ± 2.7^ac %	58 ± 5.1
CCc1sc(N(CCO)CCO)nc1-c1ccc(OCCCCCOc2ccc(C(=N)NO)cc2)cc1 [Compound 139, N-hydroxy-4-[5-(4-{2-[bis-(2-hydroxyethyl)amino]-5-ethyl-1,3-thiazol-4-yl}phenoxy)pentyloxy]-benzamidine]	49 ± 7.8%	38 ± 6.9^ac %	64 ± 4.6
Cc1nc(-c2ccc(OCCCCCOc3ccc(C(=N)NO)cc3)cc2)c(CCN(CCO)CCO)s1 [Compound 225, N-hydroxy-4-{5-[4-(5-{2-[bis-(2-hydroxy-ethyl)-amino]-ethyl}-2-methyl-thiazol-4-yl)-phenoxy]-pentyloxy}-benzamidine]	50 ± 4.8^ab %	48 ± 4.9^ac %	70 ± 7.1
Cc1sc(NC(=O)CO)nc1-c1ccc(OCCCCCOc2ccc(C(=N)NO)cc2)cc1 [Compound 90, N-hydroxy-4-{5-[4-(2-hydroxyacetylamino-5-methyl-1,3-thiazol-4-yl)phenoxy]pentyloxy}-benzamidine]	54 ± 8.6^ab %	39 ± 8.4^ac %	87 ± 10
CCc1sc(N2CCN(C)CC2)nc1-c1ccc(OCCCCCOc2ccc(C(=N)NO)cc2)cc1 [Compound 174, N-hydroxy-4-{5-(4-[5-ethyl-2-(4-methylpiperazino)-1,3-thiazol-4-yl]phenoxy)pentyloxy}-benzamidine]	46 ± 2.6^ab %	35 ± 5.1^ac %	70 ± 2.5
CC(C)c1nc(-c2ccc(OCCCCCOc3ccc(C(=N)NO)cc3)cc2)c(CCN2CCN(C)CC2)s1 [Compound 241, N-hydroxy-4-[5-(4-{2-isopropyl-5-[2-(4-methyl-piperazin-1-yl)-ethyl]-thiazol-4-yl}-phenoxy)-pentyloxy]-benzamidine]	24 ± 4.6^ab %	12 ± 1.4^ac %	61 ± 6.8
Cc1nc(-c2ccc(OCCCCCOc3ccc(C(=N)NO)cc3)cc2)c(CCNC2CCCCC2)s1 [Compound 223, N-hydroxy-4-(5-{4-[5-(2-cyclohexylamino-ethyl)-2-methyl-thiazol-4-yl]-phenoxy}-pentyloxy)-benzamidine]	73 ± 8.2%	60 ± 12.6%	81 ± 3.8
CC(C)c1nc(-c2ccc(OCCCCCOc3ccc(C(=N)NO)cc3)cc2)c(CCn2ccnc2)s1 [Compound 242, N-hydroxy-4-(5-{4-[5-(2-imidazol-1-yl-ethyl)-2-isopropyl-thiazol-4-yl]-phenoxy}-pentyloxy)-benzamidine]	18 ± 3.5^ab %	13 ± 2.8^ac %	58 ± 3.4
CCc1sc(NC(=O)c2ccncc2)nc1-c1ccc(OCCCCCOc2ccc(C(=N)NO)cc2)cc1 [Compound 100, N-hydroxy-4-{5-[4-(5-ethyl-2-(4-pyridylcarbonyl)amino-1,3-thiazol-4-yl)phenoxy]pentyloxy}-benzamidine]	14 ± 6.9^ab %	12 ± 3.0^ac %	46 ± 8.4
Cc1sc(N(C)Cc2ccccc2)nc1-c1ccc(OCCCCCOc2ccc(C(=N)NO)cc2)cc1 [Compound 125, N-hydroxy-4-{5-(4-[2-(benzyl-methyl-amino)-5-methyl-1,3-thiazol-4-yl]phenoxy)pentyloxy}-benzamidine]	43 ± 3.3^ab %	21 ± 9.0^ac %	66 ± 4.4
N=C(NO)c1ccc(OCCCCCOc2ccc(-c3nc(-c4ccccc4)sc3N)cc2)cc1 [Compound 330, N-hydroxy-4-{5-[4-(5-amino-2-phenyl-thiazol-4-yl)-phenoxy]-pentyloxy}-benzamidine]	23 ± 3.9^ab %	12 ± 2.4^ac %	46 ± 4.7
Cc1nc(-c2ccc(OCCCCCOc3ccc(C(=N)NO)cc3)cc2)c(CC2CCCC2)s1 [Compound 45, N-hydroxy-4-{5-[4-(5-cyclopentylmethyl-2-methyl-1,3-thiazol-4-yl)phenoxy]pentyloxy}-benzamidine]	49 ± 8.1^ab %	38 ± 11.9^ac %	72 ± 4.6
Cc1nc(-c2ccc(OCCCCCOc3ccc(C(=N)NO)cc3)cc2)c(CCNC(C)C)s1 [Compound 219, N-hydroxy-4-(5-{4-[5-(2-isopropylamino-ethyl)-2-methyl-thiazol-4-yl]-phenoxy}-pentyloxy)-benzamidine]	51 ± 5.4^b %	40 ± 3.8^c %	61 ± 10.5
CN1CCN(c2sc(N3CCOCC3)nc2-c2ccc(OCCCCCOc3ccc(C(=N)NO)cc3)cc2)CC1 [Compound 289, N-hydroxy-4-(5-{4-[5-(4-methyl-piperazin-1-yl)-2-morpholine-4-yl-thiazol-4-yl]-phenoxy}-pentyloxy)-benzamidine]	21 ± 7.4^b %	10 ± 3.1^ac %	36 ± 9.1
CN(CCN1CCOCC1)c1nc(-c2ccc(OCCCCCOc3ccc(C(=N)NO)cc3)cc2)c(CC2CCCC2)s1 [Compound 148, N-hydroxy-4-[5-(4-{5-cyclopentylmethyl-2-[methyl-(2-morpholinoethyl)amino]-1,3-thiazol-4-yl}phenoxy)pentyloxy]-benzamidine]	33 ± 8.3^ab %	19 ± 2.4^a %	65 ± 4.3
CCCCc1sc(N(C)C)nc1-c1ccc(OCCCCCOc2ccc(C(=N)NO)cc2)cc1 [Compound 152, N-hydroxy-4-{5-[4-(5-butyl-2-dimethylamino-1,3-thiazol-4-yl)phenoxy]pentyloxy}-benzamidine]	46 ± 8.8^b %	48 ± 4.9^ac %	65 ± 2.2
N=C(NO)c1ccc(OCCCCCOc2ccc(-c3nc(N4CCOCC4)sc3C3CCCC3)cc2)cc1 [Compound 172, N-hydroxy-4-{5-[4-(5-cyclopentyl-2-morpholin-4-yl-1,3-thiazol-4-yl)phenoxy]pentyloxy}-benzamidine]	33 ± 5.3^ab %	26 ± 5.1^a %	57 ± 5.1
